Assay results reported in US20230045112A1, “DISULFIRAM AND OTHER REDOX-RELATED COMPOSITIONS FOR BRAIN TUMORS” (Texas Tech University System, priority 2014, published 2023).

Experiments:
[1] = molecular target: T1, rMGMT (Homo sapiens, UniProt P16455); assay: In vitro degradation of DSF treated rMGMT in rabbit reticulocyte lysates; format: biochemical
T1 construct: hexa-histidine; made in house; host or cells: E. coli
T1 sequence (P16455 1-207): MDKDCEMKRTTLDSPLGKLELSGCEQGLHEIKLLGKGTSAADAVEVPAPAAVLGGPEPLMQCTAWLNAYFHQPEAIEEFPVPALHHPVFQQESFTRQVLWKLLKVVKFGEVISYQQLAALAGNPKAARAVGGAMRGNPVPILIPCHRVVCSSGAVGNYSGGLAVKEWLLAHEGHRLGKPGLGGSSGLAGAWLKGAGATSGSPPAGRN
Text: DSF-exposed MGMT samples were dialyzed to remove the residual drug prior to the degradation assays. […] The protein bands were quantified by densitometry.
The samples were immunoblotted and probed with MGMT antibodies (right panel). The densitometric quantitation of protein bands on the western blots is shown as a line graph on the left. […] Cell lysates were western blotted for the MGMT protein. […] Kinetics of DNA interstrand crosslinks formed in UW228 cells after treatment with […] BCNU or […] melphalan is shown. […] They were then exposed to BCNU or melphalan. At times specified, the cells were harvested, DNA isolated and the extent of interstrand crosslinking of DNA was determined using the ethidium bromide fluorescence assay. Values are mean+S.D. The results were significant at P<0.05. […] The cells were trypsinized at times indicated and analyzed by flow cytometry.
Since the MGMT inactivated by BG is degraded through ub-proteolysis, it was of interest to investigate the mode of elimination of DSF-modified MGMT protein. Therefore, first, we compared the in vitro degradation of DSF-treated and untreated rMGMT protein in rabbit reticulocyte lysates (RL), which are known to promote the proteasomal degradation. The control and DSF-modified MGMT proteins were incubated with RL in the presence of Mg++, ATP and ubiquitin at 37° C. The reaction mixtures were blotted and probed with MGMT antibodies. […] To show the involvement of the ub-proteolysis in cells a clinically used proteasome inhibitor. […] Taken together, the results presented in FIGS. 4A-4B confirm that DSF-modified MGMT is perceived as a structurally altered/damaged protein in cells and eliminated through the ub-proteasomal route.

[2] = tested on: wild-type and mutant p53, NF-κB, and ubiquitin E1; assay: Degradation of redox-sensitive proteins by disulfiram; format: cell-based

Structure (SMILES): CCN(CC)C(=S)SSC(=S)N(CC)CC [DSF, 1,1′,1″,1′″-[disulfanediylbis(carbonothioylnitrilo)]tetraethane]
- disappearance of DSF-modified rMGMT protein ([1]; 10 minutes of incubation): 30%
- disappearance of DSF-modified rMGMT protein ([1]; 25 minutes of incubation): 45%
- disappearance of DSF-modified rMGMT protein ([1]; 40 minutes of incubation): 70%
- degradation of redox-sensitive proteins [2]: degraded by disulfiram in a dose-dependent manner
